{"source": "ChEMBL document CHEMBL5550165", "about": "“Novel quinoxaline analogs as telomeric G-quadruplex ligands exert antitumor effects related to enhanced immunomodulation” (Eur J Med Chem, 2024)", "key": {"MDA-MB-231 [1]": {"system": "MDA-MB-231", "test": "Induction of DNA damage in human MDA-MB-231 cells assessed as upregulation of CHK2 phosphorylation incubated for 24 hrs by Western blot analysis", "format": "functional, cell-based"}, "DNA [2]": {"target": "DNA", "test": "Binding affinity to DNA (unknown origin) assessed as dissociation constant by Benesi-Hildebrand equation based analysis", "format": "nucleic-acid assay"}, "Quadruplex DNA [3]": {"system": "Quadruplex DNA", "test": "Binding affinity to KRAS G-quadruplex telomeric DNA (unknown origin) assessed as […] by measuring melting temperature by FRET assay", "format": "nucleic-acid assay"}, "4T1 [4]": {"system": "4T1", "test": "Antitumor activity against mouse 4T1 cells implanted in BALB/c mouse assessed as upregulation of gamma-H2AX expression in tumor at 10 mg/kg,ip every other day for 14 days by immunohistochemistry", "format": "functional, organism-based", "details": "time 14.0 day"}, "Quadruplex DNA [5]": {"system": "Quadruplex DNA", "test": "Stabilization of G-quadruplex telomeric DNA in human MDA-MB-231 cells assessed as increase in colocalization of BG4 and TRF2 formation foci at 3 uM incubated for 24 hrs by DAPI staining based immunofluorescence microscopic analysis", "format": "cell-based"}, "4T1 [6]": {"system": "4T1", "test": "Antitumor immunity against mouse 4T1 cells implanted in BALB/c mouse assessed as increase in proportion of CD8+ T cells in spleen at 10 mg/kg,ip every other day for 14 days by flow cytometry", "format": "functional, organism-based", "details": "time 14.0 day"}, "4T1 [7]": {"system": "4T1", "test": "Antitumor activity against mouse 4T1 cells implanted in BALB/c mouse assessed as damage in tumor tissue at 10 mg/kg,ip every other day for 14 days by hematoxylin and eosin staining analysis", "format": "functional, organism-based", "details": "time 14.0 day"}, "MDA-MB-231 [8]": {"system": "MDA-MB-231", "test": "Antiproliferative activity against human MDA-MB-231 cells assessed as reduction in tumor spheroid volume at 10 uM incubated for 7 days by propidium iodide staining based fluorescence analysis", "format": "functional, cell-based", "details": "time 7.0 day"}, "DNA [9]": {"system": "DNA", "test": "Binding affinity to Mitochondrial DNA (unknown origin) assessed as increase in melting temperature by CD spectrophotometric analysis", "format": "nucleic-acid assay"}, "MDA-MB-231 [10]": {"system": "MDA-MB-231", "test": "Induction of cell cycle arrest in human MDA-MB-231 cells assessed as downregulation of Cyclin B1 expression at 1 to 4 uM incubated for 24 hrs by Western blot analysis", "format": "functional, cell-based", "details": "dose 1-4 µM"}, "MDA-MB-231 [11]": {"system": "MDA-MB-231", "test": "Induction of DNA damage in human MDA-MB-231 cells assessed as increase in multi-nuclei frequency in aberrant cell at 4 uM incubated for 24 hrs by DAPI staining based microscopic analysis", "format": "functional"}, "Quadruplex DNA [12]": {"system": "Quadruplex DNA", "test": "Stabilization of G-quadruplex 5-FAM-telomeric24 DNA-TAMRA-3 (unknown origin) assessed as change in melting temperature incubated for 2 hrs by FRET assay", "format": "nucleic-acid assay"}, "DNA [13]": {"system": "DNA", "test": "Binding affinity to Hairpin DNA (unknown origin) assessed as thermal shift at 10 uM by UV-Visible spectrophotometric analysis", "format": "nucleic-acid assay"}, "MDA-MB-231 [14]": {"system": "MDA-MB-231", "test": "Induction of immunogenic cell death in human MDA-MB-231 cells assessed as increase in HMGB1 release at 1 to 4 uM incubated for 24 hrs by ELISA", "format": "functional, cell-based", "details": "dose 1-4 µM"}, "MDA-MB-231 [15]": {"system": "MDA-MB-231", "test": "Induction of DNA damage in human MDA-MB-231 cells assessed as increase in colocalization of TRF2 and gamma-H2AX formation foci in nucleus at 3 uM incubated for 24 hrs by DAPI staining based immunofluorescence analysis", "format": "functional, cell-based"}, "MDA-MB-231 [16]": {"system": "MDA-MB-231", "test": "Inhibition of cell migration in human MDA-MB-231 cells incubated for 48 hrs by wound scrape assay", "format": "functional, cell-based"}, "4T1 [17]": {"system": "4T1", "test": "Antitumor immunity against mouse 4T1 cells implanted in BALB/c mouse assessed as increase in proportion of CD8+ T cells in tumor at 10 mg/kg,ip every other day for 14 days by flow cytometry", "format": "functional, organism-based", "details": "time 14.0 day"}, "MDA-MB-231 [18]": {"system": "MDA-MB-231", "test": "Induction of apoptosis in human MDA-MB-231 cells assessed as upregulation of cleaved PARP expression at 1 to 4 uM incubated for 24 hrs by Western blot analysis", "format": "functional, cell-based", "details": "dose 1-4 µM"}, "4T1 [19]": {"system": "4T1", "test": "Antitumor activity against mouse 4T1 cells implanted in BALB/c mouse assessed as upregulation of cleaved caspase-3 expression in tumor at 10 mg/kg,ip every other day for 14 days by Western blot analysis", "format": "functional, organism-based", "details": "time 14.0 day"}, "4T1 [20]": {"system": "4T1", "test": "Antitumor immunity against mouse 4T1 cells implanted in BALB/c mouse assessed as increase in serum TNF-alpha level at 10 mg/kg,ip every other day for 14 days by ELISA", "format": "functional, organism-based", "details": "time 14.0 day"}, "MDA-MB-231 [21]": {"system": "MDA-MB-231", "test": "Induction of DNA damage in human MDA-MB-231 cells assessed as upregulation of CHK2 phosphorylation at 4 uM by Western blot analysis", "format": "functional, cell-based", "details": "TDE = time-dependent effect"}, "4T1 [22]": {"system": "4T1", "test": "Antitumor activity against mouse 4T1 cells implanted in BALB/c mouse assessed as upregulation of cleaved PARP expression in tumor at 10 mg/kg,ip every other day for 14 days by Western blot analysis", "format": "functional, organism-based", "details": "time 14.0 day"}, "4T1 [23]": {"system": "4T1", "test": "Antitumor activity against mouse 4T1 cells implanted in BALB/c mouse assessed as reduction in tumor volume at 10 mg/kg,ip every other day for 14 days", "format": "functional, organism-based", "details": "time 14.0 day"}, "MDA-MB-231 [24]": {"system": "MDA-MB-231", "test": "Induction of immunogenic cell death in human MDA-MB-231 cells assessed as increase in CRT expression incubated for 24 hrs by immunofluorescence confocal laser scanning microscopic analysis", "format": "functional, cell-based"}, "MDA-MB-231 [25]": {"system": "MDA-MB-231", "test": "Inhibition of colony formation in human MDA-MB-231 cells at 0.25 uM incubated for 8 days by crystal violet staining based analysis", "format": "functional, cell-based", "details": "time 8.0 day"}, "MDA-MB-231 [26]": {"system": "MDA-MB-231", "test": "Induction of apoptosis in human MDA-MB-231 cells assessed as increase in Annexin V-positive cells at 1 to 4 uM incubated for 24 hrs by Annexin V-633/PI staining based flow cytometry", "format": "functional, cell-based", "details": "dose 1-4 µM"}, "[27]": {"test": "Toxicity in BALB/c mouse implanted with mouse 4T1 cells assessed as histopathological change in lung at 10 mg/kg,ip every other day for 14 days by hematoxylin and eosin staining analysis", "format": "organism-based", "details": "in vivo, 336 h, time 14 day"}, "4T1 [28]": {"system": "4T1", "test": "Antitumor activity against mouse 4T1 cells implanted in BALB/c mouse assessed as reduction in tumor weight at 10 mg/kg,ip every other day for 14 days", "format": "functional, organism-based", "details": "time 14.0 day"}, "BMDC [29]": {"system": "BMDC", "test": "Induction of immunogenic cell death in BALB/c mouse BMDC cells co-cultured with mouse 4T1 cells assessed as increase in CD11c+ CD80+ CD86 cells maturation at 2.5 uM incubated for 24 hrs by flow cytometry (reference value: 69.4 %)", "format": "functional"}, "MDA-MB-231 [30]": {"system": "MDA-MB-231", "test": "Induction of cell cycle arrest in human MDA-MB-231 cells assessed as accumulation of cells at S phase at 2 uM incubated for 24 hrs by RNase/PI staining based flow cytometry (reference value: 6.3 %)", "format": "functional"}, "MDA-MB-231 [31]": {"system": "MDA-MB-231", "test": "Induction of DNA damage in human MDA-MB-231 cells assessed as upregulation of gamma-H2AX expression at 1 to 4 uM incubated for 24 hrs by Western blot analysis", "format": "functional, cell-based", "details": "dose 1-4 µM"}, "BMDC [32]": {"system": "BMDC", "test": "Induction of immunogenic cell death in BALB/c mouse BMDC cells co-cultured with mouse 4T1 cells assessed as increase in CD11c+ CD80+ CD86 cells maturation at 5 uM incubated for 24 hrs by flow cytometry (reference value: 69.4 %)", "format": "functional"}, "MCF7": {"system": "MCF7", "test": "Cytotoxicity against human MCF7 cells incubated for 24 hrs by CCK-8 reagent based spectrophotometric analysis", "format": "functional, cell-based", "details": "MCF7, 24 h"}, "MDA-MB-231 [33]": {"system": "MDA-MB-231", "test": "Induction of immunogenic cell death in human MDA-MB-231 cells assessed as increase in CRT expression incubated for 24 hrs by Alexa Fluor 647 flow cytometric assay", "format": "functional, cell-based"}, "[34]": {"test": "Toxicity in BALB/c mouse implanted with mouse 4T1 cells assessed as histopathological change in kidney at 10 mg/kg,ip every other day for 14 days by hematoxylin and eosin staining analysis", "format": "organism-based", "details": "in vivo, 336 h, time 14 day"}}, "note": "pIC50, pKd: −log10 of the molar value. Calls of active or inactive are those of the source. The calls are words filed in the database; no cut-off is given here.", "data": [{"smiles": "CN(C)CCN(C)c1ccc(-c2nc3ccc(C(F)(F)F)cc3nc2-c2ccc(N(C)CCN(C)C)cc2)cc1", "values": [{"measurement": "Activity", "setting": "MDA-MB-231 [1]", "result": "Dose-Dependent Effect"}, {"measurement": "pKd", "setting": "DNA [2]", "result": 5.85}, {"measurement": "Activity", "setting": "Quadruplex DNA [3]", "result": "Active"}, {"measurement": "Activity", "setting": "4T1 [4]", "result": "Active"}, {"measurement": "Activity", "setting": "Quadruplex DNA [5]", "result": "Active"}, {"measurement": "Activity", "setting": "4T1 [6]", "result": "Active"}, {"measurement": "Activity", "setting": "4T1 [7]", "result": "Active"}, {"measurement": "Activity", "setting": "MDA-MB-231 [8]", "result": "inactive"}, {"measurement": "Activity", "setting": "DNA [9]", "result": "Active"}, {"measurement": "Activity", "setting": "MDA-MB-231 [10]", "result": "Active"}, {"measurement": "Activity", "setting": "MDA-MB-231 [11]", "result": "Active"}, {"measurement": "ΔTm", "setting": "Quadruplex DNA [12]", "result": 6.1, "unit": "°C"}, {"measurement": "Activity", "setting": "DNA [13]", "result": "inactive"}, {"measurement": "Activity", "setting": "MDA-MB-231 [14]", "result": "Active"}, {"measurement": "Activity", "setting": "MDA-MB-231 [15]", "result": "Active"}, {"measurement": "inhibition", "setting": "MDA-MB-231 [16]", "result": "Dose-Dependent Effect"}, {"measurement": "Activity", "setting": "4T1 [17]", "result": "Active"}, {"measurement": "Activity", "setting": "MDA-MB-231 [18]", "result": "Active"}, {"measurement": "Activity", "setting": "4T1 [19]", "result": "Active"}, {"measurement": "Activity", "setting": "4T1 [20]", "result": "Active"}, {"measurement": "Activity", "setting": "MDA-MB-231 [21]", "result": "Tde"}, {"measurement": "Activity", "setting": "4T1 [22]", "result": "Active"}, {"measurement": "Activity", "setting": "4T1 [23]", "result": "Active"}, {"measurement": "Activity", "setting": "MDA-MB-231 [24]", "result": "Dose-Dependent Effect"}, {"measurement": "inhibition", "setting": "MDA-MB-231 [25]", "result": "Active"}, {"measurement": "Activity", "setting": "MDA-MB-231 [26]", "result": "Active"}, {"measurement": "Activity", "setting": "[27]", "result": "Non-Toxic"}, {"measurement": "Activity", "setting": "4T1 [28]", "result": "Active"}, {"measurement": "Activity", "setting": "BMDC [29]", "result": 70.1, "unit": "%"}, {"measurement": "Activity", "setting": "MDA-MB-231 [30]", "result": 6.9, "unit": "%"}, {"measurement": "Activity", "setting": "MDA-MB-231 [31]", "result": "Active"}, {"measurement": "Activity", "setting": "BMDC [32]", "result": 77.9, "unit": "%"}, {"measurement": "pIC50", "setting": "MCF7", "result": 5.44}, {"measurement": "Activity", "setting": "MDA-MB-231 [33]", "result": "Dose-Dependent Effect"}, {"measurement": "Activity", "setting": "[34]", "result": "Non-Toxic"}]}]}
